Patent US5134137A, “Cephalosporin antibiotics” (The Upjohn Company, priority 1990, dated 1992)
In brackets after ≈: the same amount, converted by molar mass. Like-named read-outs stand apart in the source and are kept apart here.

Tests used:
Type in all cases: cell-based
Escherichia coli = assay: MIC, agar dilution, Escherichia coli; conditions: Escherichia coli, read-out: MIC
Method: (§1) Stock solution of each test antibiotic compound were prepared to have a concentration of 2 mg. of the test compound per milliliter in sterile water of 0.1M ammonium acetate solution. The amount of each compound used was adjusted for base compound activity as calculated from the purity data for the selected batch of compound.
(§2) The dilution procedure described by Washington and Sutter [Manual of Clinical Microbiology, 3rd, Edit. (Lennett, E. H. et al, Eds.), pp. 453-458 (1980), American Society for Microbiology, Washington, D.C.] was modified so that serial concentrations of 128 to 0.0625 microgram/ml. in sterile water was obtained. Then 1.5 ml. aliquots of these test antibiotic dilution mixtures are added to 13.5 molten (50° C.) Mueller-Hinton agar. Each resulting mixture is poured into 15×100 mm, sterile Petri plates and allowed to dry at room temperature overnight.
(§3) Test bacterial cultures are maintained at -70° C. on glass beads. [See R. J. Yancey, Jr. et al, Amer. Jr. of Vet. Research, 48, No. 7, pp. 1050-1053, (1987)]. At least one bacteria-laden bead per culture is dropped into one ml. of brain heart infusion (BHI) broth for overnight culture at 37° C. in 5% V/V carbon dioxide in air atmosphere.
(§4) On the data of assay, 2 to 8 drops of the bacterial broth cultures are transferred to fresh BHI broth (1 ml.) and the mixture is incubated for 4 to 6 hours at 37° C. in a 5% V/V carbon dioxide in air atmosphere. The resulting cultures are then diluted to match a 0.5 MacFarland standard and further diluted 1:20 V/V with sterile saline solution.
(§5) A 0.001 ml. drop of the resulting mixture, containing approximately 10^3 to 10^4 colony forming units (CFU) of each test bacteria organism, is dispensed onto the surface of the test antibiotic compound test plates with a Steer's type replicator. The resulting innoculated plates are incubated 16 to 18 hours at 37° C. with a carbon dioxide atmosphere.
as §1, with “Stock solutions” for “Stock solution”
as §2, with “mm.” for “mm,”
as §2, with “for Microbiology.” for “for Microbiology,”, “15×100 mm.” for “15×100 mm,”
as §3, with “culture” for “cultures”
(§6) On the day of assay, 2 to 8 drops of the bacterial broth cultures are transferred to fresh BHI broth (1 ml.) and the mixture is incubated for 4 to 6 hours at 37° C. in a 5% V/V carbon dioxide in air atmosphere. […]

[1] = tested on: Streptococcus dysgalactiae; assay: MIC, agar dilution, Streptococcus dysgalactiae; conditions: Streptococcus dysgalactiae; strain UC251; read-out: MIC
Method: as §1, §2, §3, §4, §5
as §1, with “Stock solutions” for “Stock solution”
as §2, with “mm.” for “mm,”
as §2, with “for Microbiology.” for “for Microbiology,”, “15×100 mm.” for “15×100 mm,”
as §3, with “culture” for “cultures”
as §6

Pseudomonas aeruginosa = assay: MIC, agar dilution, Pseudomonas aeruginosa; conditions: Pseudomonas aeruginosa, ATCC27853; strain ATCC 27853; read-out: MIC
Method: as §1, §2, §3, §4, §5
as §1, with “Stock solutions” for “Stock solution”
as §2, with “mm.” for “mm,”
as §2, with “for Microbiology.” for “for Microbiology,”, “15×100 mm.” for “15×100 mm,”
as §3, with “culture” for “cultures”
as §6

Streptococcus suis = assay: MIC, agar dilution, Streptococcus suis; conditions: Streptococcus suis; strain 650-2; read-out: MIC
Method: as §1, §2, §3, §4, §5
as §1, with “Stock solutions” for “Stock solution”
as §2, with “mm.” for “mm,”
as §2, with “for Microbiology.” for “for Microbiology,”, “15×100 mm.” for “15×100 mm,”
as §3, with “culture” for “cultures”
as §6

Enterococcus faecalis = assay: MIC, agar dilution, Enterococcus faecalis; conditions: Enterococcus faecalis; strain UC694; read-out: MIC
Method: as §1, with “Stock solutions” for “Stock solution”
as §2, §3, §4, §5, §1
as §2, with “mm.” for “mm,”
as §2, with “for Microbiology.” for “for Microbiology,”, “15×100 mm.” for “15×100 mm,”
as §3, with “culture” for “cultures”
as §6

Salmonella typhimurium = assay: MIC, agar dilution, Salmonella typhimurium; conditions: Salmonella enterica, read-out: MIC
Method: as §1, §2, §3, §4, §5
as §1, with “Stock solutions” for “Stock solution”
as §2, with “mm.” for “mm,”
as §2, with “for Microbiology.” for “for Microbiology,”, “15×100 mm.” for “15×100 mm,”
as §3, with “culture” for “cultures”
as §6

Pasteurella hemolytica = assay: MIC (minimum inhibitory concentration), agar dilution, Pasteurella hemolytica; conditions: Pasteurella, read-out: MIC
Method: as §1, §2, §3, §4, §5
as §1, with “Stock solutions” for “Stock solution”
as §2, with “mm.” for “mm,”
as §2, with “for Microbiology.” for “for Microbiology,”, “15×100 mm.” for “15×100 mm,”
as §3, with “culture” for “cultures”
as §6

Staphylococcus aureus = assay: MIC, agar dilution, Staphylococcus aureus; conditions: Staphylococcus aureus, read-out: MIC
Method: as §1, §2, §3, §4, §5
as §1, with “Stock solutions” for “Stock solution”
as §2, with “mm.” for “mm,”
as §2, with “for Microbiology.” for “for Microbiology,”, “15×100 mm.” for “15×100 mm,”
as §3, with “culture” for “cultures”
as §6

Pasteurella multocida = assay: MIC, agar dilution, Pasteurella multocida; conditions: Pasteurella multocida; strain UC9581; read-out: MIC
Method: as §1, §2, §3, §4, §5
as §1, with “Stock solutions” for “Stock solution”
as §2, with “mm.” for “mm,”
as §2, with “for Microbiology.” for “for Microbiology,”, “15×100 mm.” for “15×100 mm,”
as §3, with “culture” for “cultures”
as §6

Enterococcus faecium = assay: MIC, agar dilution, Enterococcus faecium; conditions: Enterococcus faecium; strain UC241; read-out: MIC
Method: as §1, with “Stock solutions” for “Stock solution”
as §2, §3, §4, §5, §1
as §2, with “mm.” for “mm,”
as §2, with “for Microbiology.” for “for Microbiology,”, “15×100 mm.” for “15×100 mm,”
as §3, with “culture” for “cultures”
as §6

Salmonella choleraesuis = assay: MIC, agar dilution, Salmonella choleraesuis; conditions: Salmonella enterica, read-out: MIC
Method: as §1, §2, §3, §4, §5
as §1, with “Stock solutions” for “Stock solution”
as §2, with “mm.” for “mm,”
as §2, with “for Microbiology.” for “for Microbiology,”, “15×100 mm.” for “15×100 mm,”
as §3, with “culture” for “cultures”
as §6

Corynebacterium pyogenes = assay: MIC, agar dilution, Corynebacterium pyogenes; conditions: strain 213-2; read-out: MIC
Method: as §1, §2, §3, §4, §5
as §1, with “Stock solutions” for “Stock solution”
as §2, with “mm.” for “mm,”
as §2, with “for Microbiology.” for “for Microbiology,”, “15×100 mm.” for “15×100 mm,”
as §3, with “culture” for “cultures”
as §6

Streptococcus uberis = assay: MIC, agar dilution, Streptococcus uberis; conditions: Streptococcus uberis, read-out: MIC
Method: as §1, §2, §3, §4, §5
as §1, with “Stock solutions” for “Stock solution”
as §2, with “mm.” for “mm,”
as §2, with “for Microbiology.” for “for Microbiology,”, “15×100 mm.” for “15×100 mm,”
as §3, with “culture” for “cultures”
as §6

[2] = tested on: Bordetella bronchiseptica; assay: MIC, agar dilution, Bordetella bronchiseptica; conditions: Bordetella bronchiseptica; strain UC6313; read-out: MIC
Method: as §1, §2, §3, §4, §5
as §1, with “Stock solutions” for “Stock solution”
as §2, with “mm.” for “mm,”
as §2, with “for Microbiology.” for “for Microbiology,”, “15×100 mm.” for “15×100 mm,”
as §3, with “culture” for “cultures”
as §6

Micrococcus luteus = assay: MIC, agar dilution, Micrococcus luteus; conditions: Micrococcus luteus; strain UC130; read-out: MIC
Method: as §1, §2, §3, §4, §5
as §1, with “Stock solutions” for “Stock solution”
as §2, with “mm.” for “mm,”
as §2, with “for Microbiology.” for “for Microbiology,”, “15×100 mm.” for “15×100 mm,”
as §3, with “culture” for “cultures”
as §6

Streptococcus agalactiae = assay: MIC, agar dilution, Streptococcus agalactiae; conditions: Streptococcus agalactiae, read-out: MIC
Method: as §1, §2, §3, §4, §5
as §1, with “Stock solutions” for “Stock solution”
as §2, with “mm.” for “mm,”
as §2, with “for Microbiology.” for “for Microbiology,”, “15×100 mm.” for “15×100 mm,”
as §3, with “culture” for “cultures”
as §6

Streptococcus bovis = assay: MIC, agar dilution, Streptococcus bovis; conditions: Streptococcus equinus; strain UC6281; read-out: MIC
Method: as §1, §2, §3, §4, §5
as §1, with “Stock solutions” for “Stock solution”
as §2, with “mm.” for “mm,”
as §2, with “for Microbiology.” for “for Microbiology,”, “15×100 mm.” for “15×100 mm,”
as §3, with “culture” for “cultures”
as §6

[3] = TYPHIMURIUM / UC6162, strain UC6162
[4] = TYPHIMURIUM / UC6164, strain UC6164
[5] = CHOLERAESUIS / UC6073, strain UC6073
[6] = CHOLERAESUIS / UC6077, strain UC6077

Row | SMILES | MIC (Escherichia coli; strain UC3784) [µg/mL] | MIC (Escherichia coli; strain UC6720) [µg/mL] | MIC (Escherichia coli; strain UC9670) [µg/mL] | MIC [1] [µg/mL] | MIC (Pseudomonas aeruginosa) [µg/mL] | MIC (Streptococcus suis) [µg/mL] | MIC (Enterococcus faecalis) [µg/mL] | MIC (Salmonella typhimurium; [3]) [µg/mL] | MIC (Salmonella typhimurium; [4]) [µg/mL] | MIC (Pasteurella hemolytica; strain UC6531) [µg/mL] | MIC (Pasteurella hemolytica; strain UC6532) [µg/mL] | MIC (Pasteurella hemolytica; strain UC9582) [µg/mL] | MIC (Staphylococcus aureus; strain UC6093) [µg/mL] | MIC (Staphylococcus aureus; strain UC6097) [µg/mL] | MIC (Staphylococcus aureus; strain UC9203) [µg/mL] | MIC (Pasteurella multocida) [µg/mL] | MIC (Enterococcus faecium) [µg/mL] | MIC (Salmonella choleraesuis; [5]) [µg/mL] | MIC (Salmonella choleraesuis; [6]) [µg/mL] | MIC (Corynebacterium pyogenes) [µg/mL] | further results
1 | CO/N=C(\C(=O)N[C@@H]1C(=O)N2C(C(=O)O)=C(CSSc3ccc(Cl)cc3)CS[C@H]12)c1csc(N)n1 [Example 17] | 2 (≈ 3.5 µM) | 4 (≈ 6.99 µM) | 8 (≈ 14 µM) | ≤ 0.06 | > 32 | ≤ 0.06 | > 32 | 4 (≈ 6.99 µM) | 4 (≈ 6.99 µM) | ≤ 0.06 | 0.13 (≈ 0.227 µM) | 0.13 (≈ 0.227 µM) | 4 (≈ 6.99 µM) | 2 (≈ 3.5 µM) | 2 (≈ 3.5 µM) | ≤ 0.06 | > 32 | 8 (≈ 14 µM) | 8 (≈ 14 µM) | ≤ 0.06 | MIC (Streptococcus uberis; strain UC3946): ≤ 0.06 µg/mL; MIC (Streptococcus uberis; strain UC6159): 4 µg/mL (≈ 6.99 µM); MIC [2]: > 32 µg/mL; MIC (Micrococcus luteus): ≤ 0.06 µg/mL; MIC (Streptococcus agalactiae; strain UC3947): ≤ 0.06 µg/mL; MIC (Streptococcus agalactiae; strain UC6892): ≤ 0.06 µg/mL; MIC (Streptococcus bovis): ≤ 0.06 µg/mL
2 | CO/N=C(\C(=O)N[C@@H]1C(=O)N2C(C(=O)O)=C(CSSC3CCCCC3)CS[C@H]12)c1csc(N)n1 [Example 19] | 4 (≈ 7.36 µM) | 8 (≈ 14.7 µM) | 4 (≈ 7.36 µM) | ≤ 0.06 | > 32 | ≤ 0.06 | > 32 | 16 (≈ 29.4 µM) | 16 (≈ 29.4 µM) | 0.5 (≈ 0.92 µM) | 0.5 (≈ 0.92 µM) | 0.25 (≈ 0.46 µM) | 1 (≈ 1.84 µM) | 1 (≈ 1.84 µM) | 1 (≈ 1.84 µM) | ≤ 0.06 | > 32 | 8 (≈ 14.7 µM) | 16 (≈ 29.4 µM) | 0.5 (≈ 0.92 µM) | MIC (Streptococcus uberis; strain UC3946): 0.13 µg/mL (≈ 0.239 µM); MIC (Streptococcus uberis; strain UC6159): 8 µg/mL (≈ 14.7 µM); MIC [2]: > 32 µg/mL; MIC (Micrococcus luteus): ≤ 0.06 µg/mL; MIC (Streptococcus agalactiae; strain UC3947): ≤ 0.06 µg/mL; MIC (Streptococcus agalactiae; strain UC6892): ≤ 0.06 µg/mL; MIC (Streptococcus bovis): ≤ 0.06 µg/mL
3 | CCC(C)SSCC1=C(C(=O)O)N2C(=O)[C@@H](NC(=O)/C(=N\OC)c3csc(N)n3)[C@H]2SC1 (stereo partly drawn) [Example 13] | 8 (≈ 15.5 µM) | 16 (≈ 30.9 µM) | 8 (≈ 15.5 µM) | ≤ 0.06 | > 32 | ≤ 0.06 | > 32 | 16 (≈ 30.9 µM) | 16 (≈ 30.9 µM) | 1 (≈ 1.93 µM) | 0.13 (≈ 0.251 µM) | 0.25 (≈ 0.483 µM) | 4 (≈ 7.73 µM) | 2 (≈ 3.86 µM) | 2 (≈ 3.86 µM) | 8 (≈ 15.5 µM) | > 32 | 32 (≈ 61.8 µM) | > 32 | 32 (≈ 61.8 µM) | MIC (Streptococcus uberis; strain UC3946): 0.13 µg/mL (≈ 0.251 µM); MIC (Streptococcus uberis; strain UC6159): 8 µg/mL (≈ 15.5 µM); MIC [2]: > 32 µg/mL; MIC (Micrococcus luteus): 0.13 µg/mL (≈ 0.251 µM); MIC (Streptococcus agalactiae; strain UC3947): 2 µg/mL (≈ 3.86 µM); MIC (Streptococcus agalactiae; strain UC6892): > 32 µg/mL; MIC (Streptococcus bovis): > 32 µg/mL
